In brackets after ≈: the same amount, converted by molar mass.
Assays:
[1] = Inhibition of type1 FAS in HepG2 cells; type: cell-based, Homo sapiens
Staphylococcus aureus = test: Antimicrobial activity against Staphylococcus aureus; type: functional
Moraxella catarrhalis = test: Antimicrobial activity against Moraxella catarrhalis ATCC 25238; type: functional
Haemophilus influenzae = test: Antimicrobial activity against Haemophilus influenzae IID983; type: functional
Bacteroides fragilis = test: Antimicrobial activity against Bacteroides fragilis GAI5560; type: functional

Row | SMILES | IC50 [1] [µg/mL] | MIC (Staphylococcus aureus) [µg/mL] | MIC (Moraxella catarrhalis) [µg/mL] | MIC (Haemophilus influenzae) [µg/mL] | MIC (Bacteroides fragilis) [µg/mL]
1 | C=C/C(C)=C/[C@]1(C)SC(=O)C(C)=C1O | 43.7 (≈ 208 µM) | > 128 | > 128 | – | –
2 | C=C1C(=O)O[C@@H](CCCCCCCC)[C@@H]1C(=O)O | 7.4 (≈ 29.1 µM) | – | – | – | –
3 | C=C/C(C)=C/[C@]1(C)SC(=O)C=C1O | 19 (≈ 96.8 µM) | > 128 | > 128 | – | –
4 | C=C[C@@]1(C)SC(=O)C(C)=C1O | > 80 | > 128 | > 128 | > 128 | > 128
5 | CCCC/C=C/[C@@]1(C)SC(=O)C(C)=C1O | 33.7 (≈ 149 µM) | > 128 | > 128 | > 128 | > 128
6 | CCCC/C=C/[C@]1(C)SC(=O)C=C1O | 21 (≈ 98.9 µM) | > 128 | > 128 | > 128 | > 128
7 | CC/C=C/[C@@]1(C)SC(=O)C=C1O | 40.3 (≈ 219 µM) | > 128 | > 128 | > 128 | > 128
8 | C/C=C/[C@]1(C)SC(=O)C(C)=C1O | 37.1 (≈ 201 µM) | > 128 | > 128 | > 128 | > 128
9 | C/C=C/[C@]1(C)SC(=O)C=C1O | > 80 | > 128 | > 128 | > 128 | > 128
10 | C=C[C@@]1(C)SC(=O)C=C1O | > 80 | > 128 | > 128 | > 128 | > 128
11 | CCC/C=C/[C@@]1(C)SC(=O)C(C)=C1O | 41.5 (≈ 195 µM) | > 128 | > 128 | > 128 | > 128
12 | CCCCCC/C=C/[C@]1(C)SC(=O)C(C)=C1O (stereo in doubt; form 1) | 34.8 (≈ 137 µM) | – | – | – | –
13 | O=C(O)c1cn(C2CC2)c2cc(N3CCNCC3)c(F)cc2c1=O [CIPROFLOXACIN] | – | 0.063 (≈ 0.19 µM) | 0.031 (≈ 0.0936 µM) | 0.008 (≈ 0.0241 µM) | 4 (≈ 12.1 µM)
14 | C=C/C(C)=C/[C@@]1(C)SC(=O)C(C)=C1O [THIOLACTOMYCIN] | > 80 | 128 (≈ 609 µM) | 0.25 (≈ 1.19 µM) | 2 (≈ 9.51 µM) | 1 (≈ 4.76 µM)

Next, values leading:

Row | IC50 [1] [µg/mL] | MIC (Staphylococcus aureus) [µg/mL] | MIC (Moraxella catarrhalis) [µg/mL] | MIC (Haemophilus influenzae) [µg/mL] | MIC (Bacteroides fragilis) [µg/mL] | SMILES
15 | 8.8 (≈ 44.4 µM) | > 128 | > 128 | > 128 | > 128 | CCC/C=C/[C@]1(C)SC(=O)C=C1O
16 | > 80 | > 128 | > 128 | > 128 | > 128 | C=C[C@]1(C)SC(=O)C(C)=C1O
17 | 70.1 (≈ 449 µM) | > 128 | > 128 | > 128 | > 128 | C=C[C@]1(C)SC(=O)C=C1O
18 | 72.3 (≈ 392 µM) | > 128 | > 128 | > 128 | > 128 | C/C=C/[C@@]1(C)SC(=O)C(C)=C1O
19 | 72.1 (≈ 424 µM) | > 128 | > 128 | > 128 | > 128 | C/C=C/[C@@]1(C)SC(=O)C=C1O
20 | 57.5 (≈ 290 µM) | > 128 | > 128 | > 128 | > 128 | CC/C=C/[C@@]1(C)SC(=O)C(C)=C1O
21 | 47 (≈ 237 µM) | > 128 | > 128 | > 128 | > 128 | CC/C=C/[C@]1(C)SC(=O)C(C)=C1O
22 | 18.9 (≈ 103 µM) | > 128 | > 128 | > 128 | > 128 | CC/C=C/[C@]1(C)SC(=O)C=C1O
23 | 20 (≈ 94.2 µM) | > 128 | > 128 | > 128 | > 128 | CCC/C=C/[C@]1(C)SC(=O)C(C)=C1O
24 | 41.6 (≈ 210 µM) | > 128 | > 128 | > 128 | > 128 | CCC/C=C/[C@@]1(C)SC(=O)C=C1O
25 | 19.9 (≈ 87.9 µM) | > 128 | > 128 | > 128 | > 128 | CCCC/C=C/[C@]1(C)SC(=O)C(C)=C1O
26 | 18.6 (≈ 87.6 µM) | > 128 | > 128 | > 128 | > 128 | CCCC/C=C/[C@@]1(C)SC(=O)C=C1O
27 | 57 (≈ 224 µM) | > 128 | > 128 | > 128 | > 128 | CCCCCC/C=C/[C@@]1(C)SC(=O)C(C)=C1O
28 | 20.1 (≈ 83.6 µM) | > 128 | > 128 | > 128 | > 128 | CCCCCC/C=C/[C@@]1(C)SC(=O)C=C1O
29 | > 80 | > 128 | 16 (≈ 81.5 µM) | 32 (≈ 163 µM) | 128 (≈ 652 µM) | C=C/C(C)=C/[C@@]1(C)SC(=O)C=C1O
